Laboratory results as given in patent US20140066365A1, “USE OF CALIXARENES ASSOCIATED WITH AN ANTIBIOTIC IN THE TREATMENT OF BACTERIAL INFECTIONS” (priority 2011, published 2014).
Values after ≈ are worked out from the molar mass of the structure shown. Where two headings read alike, the source gives them in different places.

Experiments:
Type in all cases: cell-based
[1] = tested on: EcR1: Penicillinase-Producing Escherichia coli without Associated Resistance; assay: Antibiogram by the disk diffusion technique; details: for MIC mg/L (diameter in mm): EcR1, cells that print a diameter, Table A2; for CA-SFM Interpretation: EcR1, diameter against CA-SFM 2011 limits; for CLSI Interpretation: EcR1, diameter against CLSI 2011 limits; for EUCAST Interpretation: EcR1, diameter against EUCAST 2011 limits; for Diameter: EcR1, disk diffusion; for Diameter / Results: Table A1; for Results: EcR1, interpretation of the diameter against Dmin Dmax
Procedure: (§1) 5.1 EcR1: Penicillinase-Producing Escherichia coli without Associated Resistance The bacterial and antibiogramidentification is carried out by the VITEK 2 system (bioMérieux) and by the disk diffusion technique.

[2] = tested on: EcR1: Penicillinase-Producing Escherichia coli without Associated Resistance; assay: Antibiogram, MIC by the VITEK 2 system; details: for CA-SFM Interpretation: EcR1, MIC against Cc CA-SFM 2011; for CLSI Interpretation: EcR1, MIC against Cc CLSI 2011; for Results: EcR1, interpretation of the MIC, Table A1; for MIC: Escherichia coli
Procedure: as §1

[3] = tested on: EcR2: Cephalosporinase-Hyperproducing Strain of Escherichia coli; assay: Antibiogram, MIC by the VITEK 1 system; details: for Results: EcR2, Table B1; for CA-SFM Interpretation: Cc CA-SFM 2011; for CLSI Interpretation: Cc CLSI 2011; for MIC: Escherichia coli
Procedure: (§2) The bacterial and antibiogramidentification is carried out by the VITEK 1 system (bioMérieux) and by the disk diffusion technique

[4] = tested on: EcR3: ESBL-Producing Escherichia coli; assay: Antibiogram by the disk diffusion technique; details: for CA-SFM Interpretation: Cd CA-SFM 2011; for CLSI Interpretation: Cd CLSI 2011; for Results: Table C1, against Dmin Dmax; for diameter in mm: Table C2
Procedure: The bacterial and antibiogramidentification is carried out by the VITEK 2 system (bioMerieux) and by the disk diffusion technique

[5] = tested on: EcR2: Cephalosporinase-Hyperproducing Strain of Escherichia coli; assay: Antibiogram by the disk diffusion technique
Procedure: as §2

[6] = tested on: SaR3: Meticillin-Resistant Staphylococcus aureus; assay: Antibiogram by the disk diffusion technique
Procedure: (§3) The bacterial and antibiogramidentification is carried out by the VITEK 2 system (bioMérieux) and by the disk diffusion technique

[7] = tested on: PaR3: Pseudomonas aeruginosa; assay: Antibiogram, MIC by the VITEK 2 system
Procedure: The bacterial and antibiogramidentification is carried out by the VITEK 2 system (bioMérieux)

[8] = tested on: PaR5: Pseudomonas aeruginosa; assay: Antibiogram by the disk diffusion technique
Procedure: as §3

[9] = EcR1, Table A2, read-out: MIC mg/L (diameter in mm)
[10] = EcR1, VITEK 2, Table A1, read-out: MIC

With `C[C@H]1[C@H](NC(=O)/C(=N\OC(C)(C)C(=O)O)c2csc(N)n2)C(=O)N1S(=O)(=O)O` [Aztreonam] the “MIC mg/L (diameter in mm)” value [1] was 28 mm, the “CA-SFM Interpretation” value [1] was “Susceptible” and the “CLSI Interpretation” value [1] was “Susceptible”. The “EUCAST Interpretation” value [1] was “Susceptible”, the Diameter [1] was 28 mm and the Results [1] was “Susceptible”.

`CC(=O)OCC1=C(C(=O)O)N2C(=O)[C@@H](NC(=O)Cc3cccs3)[C@H]2SC1` [C1G, Cefalotine] was tested, and the “CA-SFM Interpretation” value [2] was “Susceptible”, the “CLSI Interpretation” value [2] was “Susceptible” and the “EUCAST Interpretation” value ([2]; EcR1, MIC against Cc EUCAST 2011) was “Susceptible”. The Results [2] was “Susceptible”, the MIC [2, 9] was 4 mg/L (≈ 10.1 µM) and the MIC [2, 10] was 4 mg/L (≈ 10.1 µM). The Diameter [1] was 17 mm, the Results [1] was “Intermediate” and the Results [3] was “Resistant”. The “CA-SFM Interpretation” value ([3]; EcR2, from MIC) was “Resistant”, the “CLSI Interpretation” value ([3]; EcR2, from MIC) was “Resistant” and the “EUCAST Interpretation” value ([3]; EcR2, from MIC, Cc EUCAST 2011) was “Resistant”. For the same compound, the MIC ([3]; EcR2, VITEK 1, Table B1, read-out: MIC) was ≥ 64 mg/L, the MIC ([3]; EcR2, Table B2, MIC, read-out: MIC) was ≥ 64 mg/L and the “CA-SFM Interpretation” value [4] was “Resistant”. The “CLSI Interpretation” value [4] was “Resistant”, the Diameter ([4]; Table C1) was 6 mm and the Results [4] was “Resistant”. The diameter in mm [4] was 6 mm.

With `CO/N=C(\C(=O)N[C@@H]1C(=O)N2C(C(=O)[O-])=C(C[N+]3(C)CCCC3)CS[C@H]12)c1csc(N)n1` [Cefepime] the “MIC mg/L (diameter in mm)” value [1] was 27 mm, the “CA-SFM Interpretation” value [1] was “Susceptible” and the “CLSI Interpretation” value [1] was “Susceptible”. For the same compound, the “EUCAST Interpretation” value [1] was “Susceptible”, the Diameter [1] was 27 mm and the Results [1] was “Susceptible”.

With `CO[C@@]1(NC(=O)Cc2cccs2)C(=O)N2C(C(=O)O)=C(COC(N)=O)CS[C@@H]21` [Cefoxitin] the “CA-SFM Interpretation” value [2] was “Susceptible”, the “CLSI Interpretation” value [2] was “Susceptible” and the Results [2] was “Susceptible”. For the same compound, the MIC [2, 9] was ≤ 4 mg/L, the MIC [2, 10] was ≤ 4 mg/L and the Diameter [1] was 24 mm. For the same compound, the Results [1] was “Susceptible”, the Diameter ([5]; EcR2, disk diffusion, Table B1) was 11 and the Results ([5]; EcR2, rows that print a diameter, Table B1) was “Resistant”. The Diameter ([5]; EcR2, Table B2, diameters) was 11 mm, the “CA-SFM Interpretation” value ([5]; EcR2, from diameter, CA-SFM 2011) was “Resistant” and the “CLSI Interpretation” value ([5]; EcR2, from diameter, CLSI 2011) was “Resistant”. The “EUCAST Interpretation” value ([5]; EcR2, from diameter, EUCAST 2011) was “Resistant”, the “CA-SFM Interpretation” value [4] was “Resistant” and the “CLSI Interpretation” value [4] was “Resistant”. The “EUCAST Interpretation” value ([4]; Cd EUCAST 2011) was “Resistant”, the Results [4] was “Intermediate” and the diameter in mm [4] was 6 mm. The “CA-SFM Interpretation” value ([6]; Cd CA-SFM 2011) was “Resistant”, the “CLSI Interpretation” value ([6]; Cd CLSI 2011) was “Resistant” and the “EUCAST Interpretation” value ([6]; Cd EUCAST 2011) was “Resistant”. The diameter in mm ([6]; Table E2) was 17 mm.

With `O=C(O)c1cn(C2CC2)c2cc(N3CCNCC3)c(F)cc2c1=O` [Ciprofloxacin] the Results [1] was “Susceptible”, the “CA-SFM Interpretation” value [4] was “Susceptible” and the Results [4] was “Susceptible”.

For `C[C@@H](O)[C@H]1C(=O)N2C(C(=O)O)=C(S[C@@H]3CN[C@H](C(=O)N(C)C)C3)[C@H](C)[C@H]12` [Meropenem], the “CA-SFM Interpretation” value ([7]; Cc CA-SFM 2011) was “Resistant”, the “CLSI Interpretation” value ([7]; Cc CLSI 2011) was “Resistant” and the “EUCAST Interpretation” value ([7]; Cc EUCAST 2011) was “Resistant”. For the same compound, the MIC ([7]; Pseudomonas aeruginosa, Table H2, read-out: MIC) was ≥ 16 µg/mL, the MIC ([7]; Table H1) was “≧16” and the Results ([7]; Table H1) was “Resistant”. The Diameter ([8]; PaR5, Table I1) was 34 mm, the Results ([8]; PaR5, Table I1, against Dmin-Dmax) was “Susceptible” and the diameter in mm ([8]; disk diffusion inhibition diameter, strain PaR5) was 34 mm. For the same compound, the “CA-SFM Interpretation” value ([8]; disk diffusion, PaR5, versus critical diameter CA-SFM 2011) was “Susceptible”, the “CLSI Interpretation” value ([8]; disk diffusion, PaR5, versus critical diameter CLSI 2011) was “Susceptible” and the “EUCAST Interpretation” value ([8]; disk diffusion, PaR5, versus critical diameter EUCAST 2011, for ** antibiotics the disk load differs and the EUCAST interpretation is not applicable) was “Susceptible”.

For `CCn1cc(C(=O)O)c(=O)c2ccc(C)nc21` [Nalidixic acid], the “CA-SFM Interpretation” value [2] was “Susceptible”, the “CLSI Interpretation” value [2] was “Susceptible” and the Results [2] was “Susceptible”. The MIC ([2]; read-out: MIC mg/L) was ≤ 2 mg/L, the MIC ([2]; read-out: MIC mg/L (diameter in mm)) was ≤ 2 mg/L and the Results [3] was “Resistant”. The “CA-SFM Interpretation” value ([3]; EcR2, from MIC) was “Resistant”, the “CLSI Interpretation” value ([3]; EcR2, from MIC) was “Resistant” and the MIC [3] was ≥ 32 mg/L. The MIC ([3]; read-out: MIC mg/L) was ≥ 32 mg/L.
